According to US9266835B2, “Quinoline derivatives useful as CB-1 inverse agonists” (JANSSEN PHARMACEUTICA NV, priority 2014, dated 2016):
Counter-ions that a name gives are not always drawn.

How the values were obtained:
[1] = target: Human CB2R (Cannabinoid receptor 2) (Homo sapiens (Human), UniProt P34972); assay: CB-2 in vitro cAMP assay (HTRF), inverse agonism; type: cell-based; settings: mean where tested more than once
[2] = target: Human CB1R (Cannabinoid receptor 1) (Homo sapiens (Human), UniProt P21554); assay: CB-1 in vitro cAMP assay (HTRF), inverse agonism; type: cell-based; settings: mean where tested more than once
Chain of Human CB1R (Cannabinoid receptor 1) (P21554 whole entry): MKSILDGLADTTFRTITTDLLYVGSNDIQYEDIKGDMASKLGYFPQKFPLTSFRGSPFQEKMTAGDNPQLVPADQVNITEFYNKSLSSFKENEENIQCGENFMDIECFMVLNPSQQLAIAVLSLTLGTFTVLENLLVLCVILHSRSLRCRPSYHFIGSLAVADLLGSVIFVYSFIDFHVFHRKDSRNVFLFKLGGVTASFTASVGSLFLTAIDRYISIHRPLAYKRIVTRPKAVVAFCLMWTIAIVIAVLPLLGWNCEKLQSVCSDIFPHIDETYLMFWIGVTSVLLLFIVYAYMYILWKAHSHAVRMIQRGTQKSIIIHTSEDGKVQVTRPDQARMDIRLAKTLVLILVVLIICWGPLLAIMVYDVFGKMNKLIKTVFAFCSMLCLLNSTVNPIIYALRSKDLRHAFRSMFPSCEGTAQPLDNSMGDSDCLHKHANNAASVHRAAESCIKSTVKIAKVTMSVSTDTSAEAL

Chain of Human CB2R (Cannabinoid receptor 2) (P34972 whole entry): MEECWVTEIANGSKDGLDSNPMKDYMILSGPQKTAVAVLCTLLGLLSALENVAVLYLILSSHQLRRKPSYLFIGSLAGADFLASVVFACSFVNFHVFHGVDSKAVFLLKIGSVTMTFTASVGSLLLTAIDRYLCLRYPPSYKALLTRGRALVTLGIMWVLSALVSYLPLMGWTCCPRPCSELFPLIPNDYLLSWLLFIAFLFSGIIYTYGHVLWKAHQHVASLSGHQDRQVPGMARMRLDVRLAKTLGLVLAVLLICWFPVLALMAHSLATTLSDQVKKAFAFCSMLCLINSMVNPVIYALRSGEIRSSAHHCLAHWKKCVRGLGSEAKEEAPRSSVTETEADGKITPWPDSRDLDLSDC

Structure (SMILES) | EC50 [1] [nM] | EC50 [2] [nM]
O=c1cc(/C=C/c2ccc(C(F)(F)F)cc2)c2cc(C(c3ccccc3)c3ccc(Cl)cc3)ccc2[nH]1 (stereo not drawn) [Compound 33, 6-[(4-Chlorophenyl)(phenyl)methyl]-4-{(E)-2-[4-(trifluoromethyl)phenyl]-ethenyl}quinolin-2(1H)-one] | > 10000 | 1210
O=c1cc(/C=C/c2ccc(Cl)cc2)c2cc(C(c3ccccc3)c3ccc(Cl)cc3)ccc2[nH]1 (stereo not drawn) [Compound 34, 4-[(E)-2-(4-Chlorophenyl)ethenyl]-6-[(4-chlorophenyl)(phenyl)methyl]quinolin-2(1H)-one] | > 10000 | 1460
Clc1ccc(C(c2ccsc2)c2ccc3nccc(/C=C/c4ccccc4)c3c2)cc1 (stereo not drawn) [Compound 509, 6-[(4-Chlorophenyl)(thiophen-3-yl)methyl]-4-[(E)-2-phenylethenyl]quinoline] | > 10000 | 140
O=c1cc(/C=C/c2ccc(C(F)(F)F)cc2)c2cc(C(c3ccc(Cl)cc3)c3ccc(Cl)s3)ccc2[nH]1 (stereo not drawn) [Compound 29, 6-[(4-Chlorophenyl)(5-chlorothiophen-2-yl)methyl]-4-{(E)-2-[4-(trifluoromethyl)phenyl]-ethenyl}quinolin-2(1H)-one] | > 10000 | 759
CCOC(=O)COc1cc(C(c2ccc(Cl)cc2)c2ccc(Cl)cc2)cc2c(NC3CCN(S(=O)(=O)C(F)(F)F)CC3)cc(=O)[nH]c12 [Compound 544] | 3400 | 126
CC(C)S(=O)(=O)N1CCC(Nc2cc(=O)[nH]c3ccc(C(c4ccc(Cl)cc4)c4nccs4)cc23)CC1 (stereo not drawn) [Compound 40, 6-[(4-Chlorophenyl)(1,3-thiazol-2-yl)methyl]-4-({1-[(1-methylethyl)sulfonyl]piperidin-4-yl}amino)quinolin-2(1H)-one] | > 10000 | 204
O=c1cc(CCc2cccc(Cl)c2)c2cc(C(O)(c3ccc(Cl)cc3)c3nccs3)ccc2[nH]1 (stereo not drawn) [Compound 8, 4-(3-chlorophenethyl)-6-((4-chlorophenyl)(hydroxy)(thiazol-2-yl)methyl)quinolin-2(1H)-one] | > 10000 | 876
COC(=O)CCCCCOc1cc(NC2CCN(S(=O)(=O)C(F)(F)F)CC2)c2cc(C(c3ccc(Cl)cc3)c3ccc(Cl)cc3)ccc2n1 [Compound 534, Methyl 6-({6-[bis(4-chlorophenyl)methyl]-4-({1-[(trifluoromethyl)sulfonyl]-piperidin-4-yl}amino)quinolin-2-yl}oxy)hexanoate] | > 10000 | 2200
O=S(=O)(N1CCC(Nc2ccnc3c(O)cc(C(c4ccc(Cl)cc4)c4ccc(Cl)cc4)cc23)CC1)C(F)(F)F [Compound 541, 6-(bis(4-chlorophenyl)methyl)-4-((1-((trifluoromethyl)sulfonyl)piperidin-4-yl)amino)quinolin-8-ol] | > 10000 | 339
O=c1cc(CCc2cccc(Cl)c2)c2cc(C(c3ccc(Cl)cc3)c3nccs3)ccc2[nH]1 (stereo not drawn) [Compound 11, 4-(3-chlorophenethyl)-6-((4-chlorophenyl)(thiazol-2-yl)methyl)quinolin-2(1H)-one] | > 10000 | 121
CC(C)(C)OC(=O)N1CC[C@H](Nc2cc(=O)[nH]c3ccc(C(c4ccc(Cl)cc4)c4nccs4)cc23)C1 (stereo partly drawn) [Compound 45, tert-Butyl (3S)-3-({6-[(4-chlorophenyl)(1,3-thiazol-2-yl)methyl]-2-oxo-1,2-dihydroquinolin-4-yl}amino)pyrrolidine-1-carboxylate] | > 10000 | 1170
O=c1cc(NC2CCN(S(=O)(=O)C(F)(F)F)CC2)c2cc(C(c3ccc(Cl)cc3)N3CCN(c4ccccc4)CC3)ccc2[nH]1 (stereo not drawn) [Compound 137, 6-((4-chlorophenyl)(4-phenylpiperazin-1-yl)methyl)-4-((1-((trifluoromethyl)sulfonyl)piperidin-4-yl)amino)quinolin-2(1H)-one] | > 10000 | 290
CCS(=O)(=O)N1CCC(Nc2cc(=O)[nH]c3ccc(C(c4ccc(Cl)cc4)c4ccc(Cl)cc4)cc23)CC1 [Compound #56, 6-(bis(4-chlorophenyl)methyl)-4-((1-(ethylsulfonyl)piperidin-4-yl)amino)quinolin-2(1H)-one] | > 10000 | 22
O=c1cc(NC2CCN(S(=O)(=O)C(F)(F)F)CC2)c2cc(C(Oc3ccc(Cl)cc3)c3ccc(Cl)cc3)ccc2[nH]1 (stereo not drawn) [Compound #136, 6-[4-chlorophenoxy(4-chlorophenyl)methyl]-4-[[1-(trifluoromethane)sulfonylpiperidin-4-yl]amino]-1,2-dihydroquinolin-2-one] | > 10000 | 122

More lines, in order of falling EC50 [1], values ahead:

EC50 [1] [nM] | EC50 [2] [nM] | Structure (SMILES)
7100 | 23 | O=c1cc(NC2CCN(S(=O)(=O)C(F)(F)F)CC2)c2cc(C(c3ccc(F)cc3)c3ccc(Cl)cc3)ccc2[nH]1 (stereo not drawn) [Compound 52, 6-[(4-Chlorophenyl)(4-fluorophenyl)methyl]-4-({1-[(trifluoromethyl)sulfonyl]-piperidin-4-yl}amino)quinolin-2(1H)-one]
6750 | 54 | O=c1cc(NCc2cncc(C(F)(F)F)c2)c2cc(C(c3ccc(Cl)cc3)c3ccc(Cl)cc3)ccc2[nH]1 [Compound 79, 6-[Bis(4-chlorophenyl)methyl]-4-({[5-(trifluoromethyl)pyridin-3-yl]methyl}amino)quinolin-2(1H)-one]
4610 | 75 | O=c1cc(N[C@@H]2CCN(S(=O)(=O)C(F)(F)F)C2)c2cc(C(c3ccc(Cl)cc3)c3nccs3)ccc2[nH]1 (stereo partly drawn) [Compound 47, 6-[(4-Chlorophenyl)(1,3-thiazol-2-yl)methyl]-4-({(3R)-1-[(trifluoromethyl)sulfonyl]-pyrrolidin-3-yl}amino)quinolin-2(1H)-one]
4300 | 64 | O=c1cc(NC2CCN(S(=O)(=O)C(F)(F)F)CC2)c2cc(C(c3ccc(Cl)cc3)c3nc4ccccc4s3)ccc2[nH]1 (stereo not drawn) [Compound 65, 6-[1,3-Benzothiazol-2-yl(4-chlorophenyl)methyl]-4-({1-[(trifluoromethyl)sulfonyl]-piperidin-4-yl}amino)quinolin-2(1H)-one]
2380 | 108 | O=C(O)CCCCOc1cc(C(c2ccc(Cl)cc2)c2ccc(Cl)cc2)cc2c(NC3CCN(S(=O)(=O)C(F)(F)F)CC3)ccnc12 [Compound 537, 5-((6-(bis(4-chlorophenyl)methyl)-4-((1-((trifluoromethyl)sulfonyl)piperidin-4-yl)amino)quinolin-8-yl)oxy)pentanoic acid]
690 | 113 | O=C(O)c1ccc(S(=O)(=O)N2CCC(Nc3cc(=O)[nH]c4ccc(C(c5ccc(Cl)cc5)c5ccc(Cl)cc5)cc34)CC2)s1 [Compound 130, 5-[4-([6-[bis(4-chlorophenyl)methyl]-2-hydroxyquinolin-4-yl]amino)piperidine-1-sulfonyl]thiophene-2-carboxylic acid, trifluoroacetic acid salt]
115 | 31 | COc1cc(NC2CCN(S(=O)(=O)C(F)(F)F)CC2)c2cc(C(c3ccc(Cl)cc3)c3ccc(Cl)cc3)cc(CCCO)c2n1 [Compound 550, 3-(6-(bis(4-chlorophenyl)methyl)-2-methoxy-4-((1-((trifluoromethyl)sulfonyl)piperidin-4-yl)amino)quinolin-8-yl)propan-1-ol]
